In ChEMBL document CHEMBL1800055, “Orally active MMP-1 sparing α-tetrahydropyranyl and α-piperidinyl sulfone matrix metalloproteinase (MMP) inhibitors with efficacy in cancer, arthritis, and cardiovascular disease” (J Med Chem, 2010):
Activity calls are given as the source filed them. The calls are words filed in the database; no cut-off is given here.

Columns and labels:
Rattus norvegicus [1] = assay: Cardioprotective activity in rat myocardial infarction model assessed inhibition of left ventricular dilation at 50 mg/kg, po qd for 4 weeks (reference value: 0.69 +/- 0.02 mL); type: functional, Heart left ventricle
[2] = Cmax in rat at 20 mg/kg, po; type: ADME, organism-based; design: dose 20 mg/kg, route oral; settings: in vivo
[3] = Oral bioavailability in rat at 20 mg/kg; type: ADME, organism-based; settings: in vivo
Interstitial collagenase = biological target: T1, Interstitial collagenase (Homo sapiens, UniProt P03956); type: cell-based, HT-1080
T1 sequence (P03956 whole entry): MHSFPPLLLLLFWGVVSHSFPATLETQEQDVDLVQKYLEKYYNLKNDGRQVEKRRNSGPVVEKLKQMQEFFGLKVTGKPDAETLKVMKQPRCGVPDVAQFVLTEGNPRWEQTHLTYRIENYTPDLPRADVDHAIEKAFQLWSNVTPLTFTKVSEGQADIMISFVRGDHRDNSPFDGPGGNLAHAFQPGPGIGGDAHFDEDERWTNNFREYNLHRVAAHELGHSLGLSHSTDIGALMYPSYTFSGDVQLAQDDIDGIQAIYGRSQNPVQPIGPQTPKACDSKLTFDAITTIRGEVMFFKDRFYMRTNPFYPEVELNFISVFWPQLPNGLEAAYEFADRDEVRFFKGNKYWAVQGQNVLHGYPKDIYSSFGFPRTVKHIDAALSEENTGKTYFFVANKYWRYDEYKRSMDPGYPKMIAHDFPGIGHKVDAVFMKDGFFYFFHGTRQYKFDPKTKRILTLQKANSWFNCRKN

Rattus norvegicus [4] = assay: Plasma concentration in rat at 20 mg/kg, po; type: ADME, organism-based; design: dose 20 mg/kg, route oral; settings: in vivo
Stromelysin-1 = Stromelysin-1 (Homo sapiens, UniProt P08254)
Stromelysin-1, sequence (P08254 whole entry): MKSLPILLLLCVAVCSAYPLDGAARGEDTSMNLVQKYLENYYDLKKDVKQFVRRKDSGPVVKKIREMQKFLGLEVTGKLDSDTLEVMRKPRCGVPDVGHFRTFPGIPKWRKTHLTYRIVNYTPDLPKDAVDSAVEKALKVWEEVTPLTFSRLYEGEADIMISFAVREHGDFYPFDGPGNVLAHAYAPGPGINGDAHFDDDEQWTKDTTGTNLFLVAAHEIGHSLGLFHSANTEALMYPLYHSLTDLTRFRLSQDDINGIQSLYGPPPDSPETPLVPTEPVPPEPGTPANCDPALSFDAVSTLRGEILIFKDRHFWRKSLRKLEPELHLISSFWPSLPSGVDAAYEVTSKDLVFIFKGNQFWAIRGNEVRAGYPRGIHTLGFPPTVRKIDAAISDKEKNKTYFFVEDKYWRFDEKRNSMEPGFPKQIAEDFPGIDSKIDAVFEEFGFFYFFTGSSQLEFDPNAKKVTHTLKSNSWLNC

[5] = Half life in rat at 20 mg/kg, po; type: ADME, organism-based; design: dose 20 mg/kg, route oral; settings: in vivo
MX1 = assay: Antitumor activity against human MX1 cells xenografted in cyclophosphamide-treated nude mouse adjuvant model assessed as increase in mouse survival time at 6 to 50 mg/kg, po BID measured up to 90 days; type: functional, organism-based
[6] = biological target: 72 kDa type IV collagenase (Homo sapiens, UniProt P08253)
72 kDa type IV collagenase, sequence (P08253 whole entry): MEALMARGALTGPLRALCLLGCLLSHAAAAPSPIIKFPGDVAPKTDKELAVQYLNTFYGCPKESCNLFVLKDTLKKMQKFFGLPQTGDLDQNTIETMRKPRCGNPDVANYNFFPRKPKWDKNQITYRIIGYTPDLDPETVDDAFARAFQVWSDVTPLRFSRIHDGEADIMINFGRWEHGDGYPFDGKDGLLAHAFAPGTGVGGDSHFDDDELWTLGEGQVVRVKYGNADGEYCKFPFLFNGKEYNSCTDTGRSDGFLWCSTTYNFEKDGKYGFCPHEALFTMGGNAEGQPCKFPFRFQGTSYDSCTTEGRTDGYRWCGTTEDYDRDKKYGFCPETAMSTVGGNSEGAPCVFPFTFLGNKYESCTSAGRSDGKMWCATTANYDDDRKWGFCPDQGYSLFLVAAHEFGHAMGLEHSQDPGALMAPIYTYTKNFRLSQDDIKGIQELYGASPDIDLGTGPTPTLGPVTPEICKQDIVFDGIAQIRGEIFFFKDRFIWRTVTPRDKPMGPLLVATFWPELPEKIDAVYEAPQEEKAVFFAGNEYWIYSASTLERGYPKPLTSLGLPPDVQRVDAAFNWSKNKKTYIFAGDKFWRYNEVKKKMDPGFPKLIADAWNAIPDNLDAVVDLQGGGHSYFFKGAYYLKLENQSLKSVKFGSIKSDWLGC

Mus musculus = assay: Toxicity in mouse assessed as mortality administered bid for 90 days; type: organism-based; settings: in vivo, 2160 h
Cartilage tissue = assay: Ex vivo inhibition of IL-1 and oncostatin M-induced bovine nasal cartilage degradation assessed as release of hydroxproline measured up to 16 days by mass spectrometry; type: functional, tissue-based; settings: Bos taurus, 384 h
PC-3 [7] = assay: Antitumor activity against human PC3 cells xenografted in po dosed BALB/c nu/nu mouse assessed as tumor growth inhibition administered BID measured on 25 to 30 days; type: functional, organism-based
Matrilysin = biological target: T2, Matrilysin (Homo sapiens, UniProt P09237)
T2 sequence (P09237 whole entry): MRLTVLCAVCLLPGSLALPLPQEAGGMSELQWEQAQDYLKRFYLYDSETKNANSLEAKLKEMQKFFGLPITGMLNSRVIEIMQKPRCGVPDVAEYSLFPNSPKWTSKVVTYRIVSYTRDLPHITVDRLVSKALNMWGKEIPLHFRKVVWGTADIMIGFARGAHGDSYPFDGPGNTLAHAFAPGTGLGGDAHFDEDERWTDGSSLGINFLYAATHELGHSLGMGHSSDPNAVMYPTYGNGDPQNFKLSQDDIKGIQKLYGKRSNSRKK

PC-3 [8] = assay: Antitumor activity against human PC3 cells xenografted in BALB/c nu/nu mouse assessed as tumor growth inhibition at 200 mg/kg, po BID measured on 25 to 30 days relative to control; type: functional
Neutrophil collagenase = Neutrophil collagenase (Homo sapiens, UniProt P22894)
Neutrophil collagenase, sequence (P22894 whole entry): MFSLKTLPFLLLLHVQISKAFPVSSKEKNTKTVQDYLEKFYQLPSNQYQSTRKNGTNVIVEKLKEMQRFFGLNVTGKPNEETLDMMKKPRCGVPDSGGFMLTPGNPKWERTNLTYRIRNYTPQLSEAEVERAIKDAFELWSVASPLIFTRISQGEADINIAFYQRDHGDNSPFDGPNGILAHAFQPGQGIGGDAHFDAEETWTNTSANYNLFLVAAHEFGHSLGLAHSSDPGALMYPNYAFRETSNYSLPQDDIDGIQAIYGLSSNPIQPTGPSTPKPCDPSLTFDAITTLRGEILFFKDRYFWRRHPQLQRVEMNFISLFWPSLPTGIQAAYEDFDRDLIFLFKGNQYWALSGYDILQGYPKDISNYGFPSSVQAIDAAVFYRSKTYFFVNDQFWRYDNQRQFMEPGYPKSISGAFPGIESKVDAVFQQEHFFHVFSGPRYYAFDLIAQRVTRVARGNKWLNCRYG

PC-3 [9] = assay: Antitumor activity against human PC3 cells xenografted in BALB/c nu/nu mouse assessed as tumor growth inhibition at 25 mg/kg, po BID for 30 days measured on 25 to 30 days relative to control; type: functional
PC-3 [10] = assay: Antitumor activity against human PC3 cells xenografted in BALB/c nu/nu mouse assessed as tumor growth inhibition at 100 mg/kg, po BID measured on 25 to 30 days relative to control; type: functional
Collagenase 3 = Collagenase 3 (Homo sapiens, UniProt P45452)
[11] = Oral bioavailability in rat at 10 mg/mL; type: ADME, organism-based; settings: in vivo
[12] = Cmax in rat at 10 mg/mL, iv and po; type: ADME, organism-based; settings: in vivo
[13] = Half life in rat at 10 mg/mL, iv and po; type: ADME, organism-based; settings: in vivo
Rattus norvegicus [14] = assay: Plasma concentration in rat at 10 mg/mL, iv and po; type: ADME, organism-based; settings: in vivo

SMILES | IC50 (Interstitial collagenase) [nM] | IC50 (Stromelysin-1) [nM] | IC50 [6] [nM] | IC50 (Cartilage tissue) [nM] | IC50 (Matrilysin) [nM] | IC50 (Neutrophil collagenase) [nM] | IC50 (Collagenase 3) [nM] | Activity (Rattus norvegicus [1]) [mL] | Cmax [2] [ng/mL] | bioavailability [3] [%] | Cp (Rattus norvegicus [4]) [ng/mL] | half-life [5] [h] | other results
O=C(NO)C1(S(=O)(=O)c2ccc(Oc3ccc(OC(F)(F)F)cc3)cc2)CCN(C2CC2)CC1 | 4000 | 22 | < 0.1 | 10 | 7000 | 1.2 |  | 0.62 | 4160 | 23 | 440 | 2.85 | Activity (MX1): Active; Activity (Mus musculus): Non-toxic; inhibition (PC-3 [7]): Dose-dependent effect; inhibition in vivo at 200 mg/kg (PC-3 [8]): 65%; inhibition in vivo at 25 mg/kg (PC-3 [9]): 49%; inhibition in vivo at 100 mg/kg (PC-3 [10]): 65%
O=C(NO)C1(CS(=O)(=O)c2ccc(Oc3ccc(Cl)cc3)cc2)CCOCC1 [CTS-1027] |  |  |  | 30 |  |  |  |  |  |  |  |  | 
C#CCN1CCC(C(=O)NO)(S(=O)(=O)c2ccc(Oc3ccc(S(C)(=O)=O)cc3)cc2)CC1 | > 10000 |  | 3.3 |  |  |  | 2.9 | 0.63 |  |  |  |  | 

More lines, main results first:

IC50 (Interstitial collagenase) [nM] | IC50 (Stromelysin-1) [nM] | IC50 [6] [nM] | IC50 (Cartilage tissue) [nM] | IC50 (Matrilysin) [nM] | IC50 (Neutrophil collagenase) [nM] | IC50 (Collagenase 3) [nM] | SMILES | Activity (Rattus norvegicus [1]) [mL] | Cmax [2] [ng/mL] | bioavailability [3] [%] | Cp (Rattus norvegicus [4]) [ng/mL] | half-life [5] [h] | other results
8000 | 22 | 0.1 | 70 | > 10000 | 9.4 | 0.4 | O=C(NO)C1(S(=O)(=O)c2ccc(Oc3ccc(C(F)(F)F)cc3)cc2)CCOCC1 |  |  |  |  |  | bioavailability [11]: 33%; Cmax [12]: 4300 ng/mL; half-life [13]: 2.68 h; Cp (Rattus norvegicus [14]): 1154 ng/mL
 | 76.8 | 0.1 |  | > 10000 | 1.3 |  | O=C(NO)C1(S(=O)(=O)c2ccc(Oc3ccc(C(F)(F)F)cc3)cc2)CCN(C2CC2)CC1 |  | 8320 | 36.3 | 631 | 1.48 | 
